Measurements taken from patent publication US10780074B2, “Compounds and uses thereof” (Sunovion Pharmaceuticals Inc., priority 2017, dated 2020).
Counter-ions that a name gives are not always drawn.

These compounds were tested on behaviors of compound-treated mice (assay: Neuropharmacological Assay (SmartCube)). Details: Mus musculus, ip, 0.25 h, dose having 50% or more total activity in SmartCube, i.p., read-out: MED (minimal effective dose).
Assay type: in vivo
In short: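 Behavioral signatures were captured automatically by video, and each drug class received a probability for the best of three i.p. doses given 15 min pre-test (vehicle: Pharmasolve/PEG/propylene glycol). Potency is given as MED, the lowest mpk dose (typically 0.3–30) reaching 50% or more total activity.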
With `CNCC1OCCc2c(-c3ccnnc3)cccc21` (stereo not drawn) [Compound 54, N-Methyl-1-(5-(pyridazin-4-yl)isochroman-1-yl)methanamine hydrochloride salt] the minimal effective dose was 3 to 10 mg/kg.
Work on `CNCC1OCCc2c(-c3cnccn3)cccc21` (stereo not drawn) [Compound 56, N-Methyl-1-(5-(pyrazin-2-yl)isochroman-1-yl)methanamine hydrochloride salt] yielded a minimal effective dose of 3 to 10 mg/kg.
Compound `NCC1OCCc2ccc(-c3ccncn3)cc21` (stereo not drawn) [Compound 57, 7-(Pyrimidin-4-yl)isochroman-1-yl)methanamine hydrochloride] has a minimal effective dose of 10 to 30 mg/kg.
Work on `CNCC1OCCc2ccc(-c3ccncn3)cc21` (stereo not drawn) [Compound 58, N-Methyl-1-(7-(pyrimidin-4-yl)isochroman-1-yl)methanamine hydrochloride salt] yielded a minimal effective dose of 10 to 30 mg/kg.
In the case of `NCC1OCCc2c(-c3cncs3)cccc21` (stereo not drawn) [Compound 59, (5-(Thiazol-5-yl)isochroman-1-yl)methanamine hydrochloride salt], the minimal effective dose is reported as no more than 3 mg/kg.
In the case of `NCC1OCCc2c(-c3ccncn3)cccc21` (stereo not drawn) [Compound 60, (5-(Pyrimidin-4-yl)isochroman-1-yl)methanamine hydrochloride salt], the minimal effective dose is reported as 3 to 10 mg/kg.
`NCC1OCCc2c(-c3ccnnc3)cccc21` (stereo not drawn) [Compound 61, (5-(Pyridazin-4-yl)isochroman-1-yl)methanamine hydrochloride salt] was tested, and the minimal effective dose was 10 to 30 mg/kg.
`NCC1OCCc2c(-c3cccnn3)cccc21` (stereo not drawn) [Compound 62, (5-(Pyridazin-3-yl)isochroman-1-yl)methanaminehydrochloride salt] gave a minimal effective dose greater than 30 mg/kg.
For `NCC1OCCc2c(-c3cnccn3)cccc21` (stereo not drawn) [Compound 63, (5-(Pyrazin-2-yl)isochroman-1-yl)methanamine hydrochloride salt], the minimal effective dose was 3 to 10 mg/kg.

Same assay, conditions: i.p. 15 min before behavioral test, most efficacious dose(s) of 3 doses
`CNCC1OCCc2c(-c3ccnnc3)cccc21` (stereo not drawn) [Compound 54, N-Methyl-1-(5-(pyridazin-4-yl)isochroman-1-yl)methanamine hydrochloride salt] was tested, and the “AD: ADHD (probability that activity matches class)” value (shortened to “AD: ADHD”) was “+ (LOQ ≤ + <5%)”, the “AG: analgesic (probability that activity matches class)” value (“AG: analgesic” below) was “+ (LOQ ≤ + <5%)” and the “AX: anxiolytic (probability that activity matches class)” value (shortened to “AX: anxiolytic”) was “+ (LOQ ≤ + <5%)”. The “CE: cognitive enhancer (probability that activity matches class)” value (from here on “CE: cognitive enhancer”) was “++ (5% ≤ ++ <25%)”, the “DP: anti-depressant (probability that activity matches class)” value (“DP: anti-depressant” for short) was “++++ (50% ≤ ++++)” and the “MS: mood stabilizer (probability that activity matches class)” value (from here on “MS: mood stabilizer”) was “+ (LOQ ≤ + <5%)”. The “PS: anti-psychotic (probability that activity matches class)” value (from here on “PS: anti-psychotic”) was “+ (LOQ ≤ + <5%)”, the “SD: sedative hypnotic (probability that activity matches class)” value (“SD: sedative hypnotic” for short) was “+ (LOQ ≤ + <5%)” and the “UN: uncharacterized CNS activity (probability that activity matches class)” value (“UN: uncharacterized CNS activity” below) was “+ (LOQ ≤ + <5%)”.
For `CNCC1OCCc2c(-c3cnccn3)cccc21` (stereo not drawn) [Compound 56, N-Methyl-1-(5-(pyrazin-2-yl)isochroman-1-yl)methanamine hydrochloride salt], the “AD: ADHD” value was “++ (5% ≤ ++ <25%)”, the “AG: analgesic” value was “+ (LOQ ≤ + <5%)” and the “AX: anxiolytic” value was “++ (5% ≤ ++ <25%)”. The “CE: cognitive enhancer” value was “+ (LOQ ≤ + <5%)”, the “DP: anti-depressant” value was “++++ (50% ≤ ++++)” and the “MS: mood stabilizer” value was “+ (LOQ ≤ + <5%)”. The “PS: anti-psychotic” value was “+ (LOQ ≤ + <5%)”, the “SD: sedative hypnotic” value was “+ (LOQ ≤ + <5%)” and the “UN: uncharacterized CNS activity” value was “+ (LOQ ≤ + <5%)”.
In the case of `NCC1OCCc2ccc(-c3ccncn3)cc21` (stereo not drawn) [Compound 57, 7-(Pyrimidin-4-yl)isochroman-1-yl)methanamine hydrochloride], the “AD: ADHD” value is reported as “+ (LOQ ≤ + <5%)”, the “AG: analgesic” value is reported as “+ (LOQ ≤ + <5%)” and the “AX: anxiolytic” value is reported as “+ (LOQ ≤ + <5%)”. The “CE: cognitive enhancer” value was “++ (5% ≤ ++ <25%)”, the “DP: anti-depressant” value was “++ (5% ≤ ++ <25%)” and the “MS: mood stabilizer” value was “+ (LOQ ≤ + <5%)”. For the same compound, the “PS: anti-psychotic” value was “++ (5% ≤ ++ <25%)”, the “SD: sedative hypnotic” value was “++ (5% ≤ ++ <25%)” and the “UN: uncharacterized CNS activity” value was “+++ (25% ≤ +++ <50%)”.
With `CNCC1OCCc2ccc(-c3ccncn3)cc21` (stereo not drawn) [Compound 58, N-Methyl-1-(7-(pyrimidin-4-yl)isochroman-1-yl)methanamine hydrochloride salt] the “AD: ADHD” value was “+ (LOQ ≤ + <5%)”, the “AG: analgesic” value was “+ (LOQ ≤ + <5%)” and the “AX: anxiolytic” value was “++ (5% ≤ ++ <25%)”. For the same compound, the “CE: cognitive enhancer” value was “+ (LOQ ≤ + <5%)”, the “DP: anti-depressant” value was “+ (LOQ ≤ + <5%)” and the “MS: mood stabilizer” value was “+ (LOQ ≤ + <5%)”. For the same compound, the “PS: anti-psychotic” value was “+ (LOQ ≤ + <5%)”, the “SD: sedative hypnotic” value was “+ (LOQ ≤ + <5%)” and the “UN: uncharacterized CNS activity” value was “++++ (50% ≤ ++++)”.
In the case of `NCC1OCCc2c(-c3cncs3)cccc21` (stereo not drawn) [Compound 59, (5-(Thiazol-5-yl)isochroman-1-yl)methanamine hydrochloride salt], the “AD: ADHD” value is reported as “++ (5% ≤ ++ <25%)”, the “AG: analgesic” value is reported as “++ (5% ≤ ++ <25%)” and the “AX: anxiolytic” value is reported as “++ (5% ≤ ++ <25%)”. For the same compound, the “CE: cognitive enhancer” value was “+ (LOQ ≤ + <5%)”, the “DP: anti-depressant” value was “++++ (50% ≤ ++++)” and the “MS: mood stabilizer” value was “+ (LOQ ≤ + <5%)”. For the same compound, the “PS: anti-psychotic” value was “+ (LOQ ≤ + <5%)”, the “SD: sedative hypnotic” value was “+++ (25% ≤ +++ <50%)” and the “UN: uncharacterized CNS activity” value was “++ (5% ≤ ++ <25%)”.
In the case of `NCC1OCCc2c(-c3ccncn3)cccc21` (stereo not drawn) [Compound 60, (5-(Pyrimidin-4-yl)isochroman-1-yl)methanamine hydrochloride salt], the “AD: ADHD” value is reported as “+ (LOQ ≤ + <5%)”, the “AG: analgesic” value is reported as “++ (5% ≤ ++ <25%)” and the “AX: anxiolytic” value is reported as “++ (5% ≤ ++ <25%)”. For the same compound, the “CE: cognitive enhancer” value was “+ (LOQ ≤ + <5%)”, the “DP: anti-depressant” value was “++++ (50% ≤ ++++)” and the “MS: mood stabilizer” value was “+ (LOQ ≤ + <5%)”. The “PS: anti-psychotic” value was “+ (LOQ ≤ + <5%)”, the “SD: sedative hypnotic” value was “+ (LOQ ≤ + <5%)” and the “UN: uncharacterized CNS activity” value was “+ (LOQ ≤ + <5%)”.
In the case of `NCC1OCCc2c(-c3ccnnc3)cccc21` (stereo not drawn) [Compound 61, (5-(Pyridazin-4-yl)isochroman-1-yl)methanamine hydrochloride salt], the “AD: ADHD” value is reported as “+ (LOQ ≤ + <5%)”, the “AG: analgesic” value is reported as “+ (LOQ ≤ + <5%)” and the “AX: anxiolytic” value is reported as “++ (5% ≤ ++ <25%)”. For the same compound, the “CE: cognitive enhancer” value was “+ (LOQ ≤ + <5%)”, the “DP: anti-depressant” value was “++ (5% ≤ ++ <25%)” and the “MS: mood stabilizer” value was “+ (LOQ ≤ + <5%)”. The “PS: anti-psychotic” value was “+ (LOQ ≤ + <5%)”, the “SD: sedative hypnotic” value was “+ (LOQ ≤ + <5%)” and the “UN: uncharacterized CNS activity” value was “++++ (50% ≤ ++++)”.
`NCC1OCCc2c(-c3cccnn3)cccc21` (stereo not drawn) [Compound 62, (5-(Pyridazin-3-yl)isochroman-1-yl)methanaminehydrochloride salt] was tested, and the “AD: ADHD” value was “+ (LOQ ≤ + <5%)”, the “AG: analgesic” value was “+ (LOQ ≤ + <5%)” and the “AX: anxiolytic” value was “++ (5% ≤ ++ <25%)”. The “CE: cognitive enhancer” value was “+ (LOQ ≤ + <5%)”, the “DP: anti-depressant” value was “++ (5% ≤ ++ <25%)” and the “MS: mood stabilizer” value was “+ (LOQ ≤ + <5%)”. The “PS: anti-psychotic” value was “+ (LOQ ≤ + <5%)”, the “SD: sedative hypnotic” value was “+ (LOQ ≤ + <5%)” and the “UN: uncharacterized CNS activity” value was “+ (LOQ ≤ + <5%)”.
In the case of `NCC1OCCc2c(-c3cnccn3)cccc21` (stereo not drawn) [Compound 63, (5-(Pyrazin-2-yl)isochroman-1-yl)methanamine hydrochloride salt], the “AD: ADHD” value is reported as “++ (5% ≤ ++ <25%)”, the “AG: analgesic” value is reported as “+ (LOQ ≤ + <5%)” and the “AX: anxiolytic” value is reported as “++ (5% ≤ ++ <25%)”. The “CE: cognitive enhancer” value was “+ (LOQ ≤ + <5%)”, the “DP: anti-depressant” value was “++++ (50% ≤ ++++)” and the “MS: mood stabilizer” value was “+ (LOQ ≤ + <5%)”. For the same compound, the “PS: anti-psychotic” value was “+ (LOQ ≤ + <5%)”, the “SD: sedative hypnotic” value was “+ (LOQ ≤ + <5%)” and the “UN: uncharacterized CNS activity” value was “+ (LOQ ≤ + <5%)”.
